Laboratory results as given in publication PMC12615753, “Glutathione as a taste modulator: molecular mechanisms of interaction with umami and sweet taste receptors” (Food Chemistry: Molecular Sciences, 2025).

Molecular target: T1, hTAS1R1 R151A/rTAS1R3 (Homo sapiens, UniProt Q7RTX1, R151A)
T1 construct: UniProtKB number Q7RTX1–1); expressed in transfected cells; host or cells: HEK293T/17 (ATCC CRL-11268)
T1 sequence (Q7RTX1 21-841 R151A): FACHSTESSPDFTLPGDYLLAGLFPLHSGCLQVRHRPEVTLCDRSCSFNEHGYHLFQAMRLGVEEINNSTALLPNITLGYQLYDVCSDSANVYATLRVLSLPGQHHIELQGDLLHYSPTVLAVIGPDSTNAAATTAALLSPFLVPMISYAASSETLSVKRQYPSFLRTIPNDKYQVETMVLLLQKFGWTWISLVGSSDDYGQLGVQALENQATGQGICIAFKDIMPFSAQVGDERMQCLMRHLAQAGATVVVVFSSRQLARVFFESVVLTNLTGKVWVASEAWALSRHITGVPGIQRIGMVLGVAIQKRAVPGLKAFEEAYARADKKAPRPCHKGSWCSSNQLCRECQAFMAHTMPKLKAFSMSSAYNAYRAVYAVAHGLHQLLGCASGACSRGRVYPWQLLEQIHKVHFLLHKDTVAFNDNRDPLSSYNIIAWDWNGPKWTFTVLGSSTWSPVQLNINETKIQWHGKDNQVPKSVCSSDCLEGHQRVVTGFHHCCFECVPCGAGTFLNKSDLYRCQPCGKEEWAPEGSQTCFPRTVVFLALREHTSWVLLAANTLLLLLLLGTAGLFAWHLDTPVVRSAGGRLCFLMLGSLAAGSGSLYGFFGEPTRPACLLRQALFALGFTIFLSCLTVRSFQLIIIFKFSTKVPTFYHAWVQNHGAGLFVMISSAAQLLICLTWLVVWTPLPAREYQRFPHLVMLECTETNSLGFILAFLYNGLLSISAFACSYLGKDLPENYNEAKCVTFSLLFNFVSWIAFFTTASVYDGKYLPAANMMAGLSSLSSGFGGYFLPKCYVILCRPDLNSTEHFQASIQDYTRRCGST
T1 sequence (Q923K1 21-858 partner): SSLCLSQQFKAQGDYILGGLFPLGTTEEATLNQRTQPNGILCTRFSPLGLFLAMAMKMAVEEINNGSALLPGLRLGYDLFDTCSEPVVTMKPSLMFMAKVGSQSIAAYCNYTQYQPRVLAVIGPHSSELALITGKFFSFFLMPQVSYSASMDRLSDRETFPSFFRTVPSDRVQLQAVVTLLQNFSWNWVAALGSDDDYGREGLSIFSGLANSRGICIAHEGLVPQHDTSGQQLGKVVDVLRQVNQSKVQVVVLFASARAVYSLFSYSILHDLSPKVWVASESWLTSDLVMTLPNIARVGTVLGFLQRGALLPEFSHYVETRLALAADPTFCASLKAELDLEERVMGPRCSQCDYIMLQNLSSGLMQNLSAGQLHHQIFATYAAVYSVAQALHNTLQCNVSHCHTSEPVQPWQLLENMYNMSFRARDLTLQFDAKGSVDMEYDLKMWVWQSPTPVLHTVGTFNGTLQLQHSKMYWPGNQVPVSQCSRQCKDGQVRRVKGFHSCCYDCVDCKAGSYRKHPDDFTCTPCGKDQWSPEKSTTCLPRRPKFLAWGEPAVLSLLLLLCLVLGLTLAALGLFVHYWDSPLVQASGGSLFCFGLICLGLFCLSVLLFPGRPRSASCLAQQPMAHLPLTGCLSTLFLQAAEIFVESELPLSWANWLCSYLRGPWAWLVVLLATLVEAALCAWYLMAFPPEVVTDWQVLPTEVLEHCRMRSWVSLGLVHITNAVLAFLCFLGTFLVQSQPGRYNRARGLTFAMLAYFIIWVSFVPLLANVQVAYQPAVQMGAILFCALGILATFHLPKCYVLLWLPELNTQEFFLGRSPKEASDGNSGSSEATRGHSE
Test: Calcium assay, hTAS1R1 mutant co-expressed with rTAS1R3
Type: cell-based, rat

Compound | EC50 [µM] | effect of the added compound (1 mM) on the response to L-Glu (R151A) | Max ∆F/F0 (R151A, GSH) | R1 = mutant EC50/WT EC50 (R151A, GSH) | response to the agonist alone, vs WT (R151A)
N[C@@H](CCC(=O)N[C@@H](CS)C(=O)NCC(=O)O)C(=O)O [GSH, γ-L-glutamyl-L-cysteinyl-glycine] | 2590 ± 1590 | did not affect | 0.31 ± 0.08 | 1.0 | 
CCCC(CCC)NC(=O)c1ccc2c(c1)OCO2 [S807, N-(heptan-4-yl)benzo[d][1,3]dioxole-5-carboxamide, reference compound] |  |  |  |  | strongly affected
